Results on two compounds are retold here after article PMC11009625, “Antibiotic class with potent in vivo activity targeting lipopolysaccharide synthesis in Gram-negative bacteria” (Proceedings of the National Academy of Sciences of the …, 2024).

A short description of one data set: Safety testing in mice. The format is in vivo. The conditions noted are these: intravenous 50 mg/kg and subcutaneous 100 mg/kg. Here is the method:
(§1) PK and safety studies were done the Latvian Institute for Organic Synthesis (Riga, Latvia) and in vivo efficacy studies were done at Statens Serum Institut (Copenhagen, Denmark). Assays were done in accordance with the relevant permits at the respective sites (SI Appendix). For PK studies, plasma samples were taken from mice dosed subcutaneously and the samples were analyzed by UPLC/MS/MS. For in vivo efficacy studies, neutropenic mice were infected intraperitoneally with 10^6 bacteria and treated with subcutaneously with test compounds 1 h after infection. The mice were euthanized 4 h after treatment and serially diluted samples of blood and peritoneal fluid were plated onto blood agar plates. Complete experimental details available in SI Appendix.
Lantmännen) and water. […]
Safety testing in mice. […] Mice were extensively observed and toxicity signs were scored after 0-2, 5, […]
Plasma sample analysis by UPLC/MS/MS. Concentrations of EBL-3599 and EBL-3647 in mouse blood plasma were measured by liquid chromatography tandem mass spectrometry (LC/MS/MS) in positive electrospray ionization (ESI+) in multi reaction monitoring (MRM) mode. […]
A sample volume of 20 μL was transferred into a plastic tube and mixed with 300μL acetonitrile/methanol mixture (3:1, v/v) to precipitate proteins. […] Bioanalysis of samples from each mouse were measured in duplicate and the results averaged. […]

Data set [1] concerns clinical E. coli isolates (n=111). The experiment in a line: MIC distribution and MIC90, clinical E. coli isolates. The conditions noted are these: Escherichia coli; n=111, isolates from Spain, Poland, Denmark and Wales. The format is cell-based. How it is done: (§2) Minimum inhibitory concentration (MIC) values were determined according to the Clinical Laboratory Standards Institute guidelines. Frequency of resistance was determined by plating ~5 × 10^8 bacterial cells on agar-solidified media plates containing test compound at concentrations corresponding to four times the measured solid-media MIC of the strains. Colonies were counted after 24 h, restreaked onto media containing the same concentration of compound, and the MIC remeasured against the assayed compound. Genomic DNA from isolated clones was sequenced by paired-end sequencing on an Illumina MiSeq device. Complete experimental details available in SI Appendix. […]
Minimum inhibitory concentration (MIC) determination. Broth microdilution and agar dilution MIC assays were conducted according to CLSI guidelines (M07-2012). Appropriate inoculation suspension density was assessed using a Sensititre Nephelometer with a Sensititre 0.5 […]
(§3) McFarland Standard. […]
To determine the […]
genotype of MDR strains from the ENABLE strain collection, de novo assembled contigs were analyzed using ResFinder (12–14) […]
MIC distribution versus E. coli (n=111)
Clinical Isolates from Spain, Poland, Denmark and Wales
Figure S4. MIC distribution and MIC90 versus clinical E. coli isolates
MIC distribution versus K. pneumoniae (n=104)
Figure S5. MIC distribution and MIC90 versus clinical K. pneumoniae isolates […]

The nature of the next data set: in vivo. Details: species or system NMRI mice. Particulars: female, NMRI, mouse, sc. Here is the method:
as §1, with “Appendix. […]” for “Appendix.”
In vivo pharmacokinetic studies
Animals. NMRI female mice (10–12 weeks old, 27–33 g, n = 60) were obtained from ENVIGO (The Netherlands) and housed prior to treatment under standard conditions (21–23 °C, 12-h light/dark cycle, relative humidity 45%–65%) with unlimited access to food (R70 diet from […]
Lantmännen) and water. The experimental procedures were performed in accordance with the guidelines of the European Community and local laws and policies (Directive 2010/63/EU), and all of the procedures were approved by Food and Veterinary Service, Riga, Latvia. […]
PK assay in mice. For PK studies mice were dosed subcutaneously (SC) via a single bolus injection (injection volume 10 mL/kg). Blood samples were collected in tubes containing heparin. Blood was sampled from tail vein 15, 30, 60, 120, and 240min after the SC administration of the compounds. Tubes were centrifuged at +4 °C 10,000× g for 3 min. Plasma samples were collected and stored at −20 °C until analysis.
Plasma sample analysis by UPLC/MS/MS. Concentrations of EBL-3599 and EBL-3647 in mouse blood plasma were measured by liquid chromatography tandem mass spectrometry (LC/MS/MS) in positive electrospray ionization (ESI+) in multi reaction monitoring (MRM) mode.
Analyses were performed on a Waters Acquity UPLC system coupled to Waters XEVO TQ-Smicro tandem mass spectrometer. Chromatographical separation was carried out on Waters Acquity BEH C18 column (2.1×50mm, 1.7µm). The column temperature was 30°C, flow rate was 0.4mL/min. Linear gradient elution was applied, solvent A was 0.1% formic acid in water and solvent B was acetonitrile. The gradient program was: 0min – 5% B; 2.5min – 98% B; 4.5min – 98% B; 4.7min – 5% B; 5min – 5% B. Injection volume was 1µL.
Mass spectrometry parameters were obtained experimentally by direct infusion of EBL-3599 and […]
energy was 30 for all transitions. MS/MS transitions for EBL-3647 were 667.80 > 225.90 and 667.80 > 309.96. Cone voltage was 15V and collision energy was 35 and 25, respectively.
Calibration standards and quality control samples were prepared by spiking a blank mouse plasma with a stock solution of analyte to achieve a nominal concentration from 0.08 μg/mL to 80 μg/mL for both analyte.
A sample volume of 20 μL was transferred into a plastic tube and mixed with 300μL acetonitrile/methanol mixture (3:1, v/v) to precipitate proteins. The tubes was vortexed to mix and centrifuged at 10000 rpm for 10 min. 200 μL of supernatant was diluted with 600 μL of 0.1% formic acid and subjected to LC/MS/MS analysis. Samples above the upper limit of calibration should be diluted 10 times with blank plasma extract and reanalyzed. Bioanalysis of samples from each mouse were measured in duplicate and the results averaged.
Bacterial strains and inoculum. E. coli EC 106-09 (EN122) and K. pneumoniae SSI #3010 (EN124) are clinical isolates from Denmark. Bacterial suspensions for inoculation of mice were prepared

Data set [2] relates to P. aeruginosa PAO1 and efflux-defective PAO750. The experiment in a line: MIC, P. aeruginosa laboratory strains. The conditions noted are these: Pseudomonas aeruginosa. Format: cell-based. How it is done: as §2
Minimum inhibitory concentration (MIC) determination. Broth microdilution and agar dilution
MIC assays were conducted according to CLSI guidelines (M07-2012). Appropriate inoculation
suspension density was assessed using a Sensititre Nephelometer with a Sensititre 0.5
as §3

For a further data set, the system named is PaLpxH. The experiment in a line: PaLpxH enzyme inhibition compared to EcLpxH. Format: biochemical, P. aeruginosa. The conditions noted are these: PaLpxH vs EcLpxH.
[3] abbreviates: PAO1, read-out: MIC P. aeruginosa PAO1.
[4] abbreviates: PAO1, read-out: MIC P. aeruginosa PAO750.

Converted amounts (≈) assume the structure as drawn. Read-outs that look alike come from different tables or passages of the source.

With `Cc1cc(C#N)nc(N2CCN(S(=O)(=O)c3ccc(NC(=O)c4cc(CNCCCN)ccc4N(C)S(C)(=O)=O)cc3)CC2)n1.Cl.Cl` [EBL-3599], the “Tolerability / adverse reactions in mice” value in “Safety testing in mice” is given as “well tolerated”. Further, in data set [1], the MIC90 turned out to be 4 µg/mL. Also, the AUC is 22900 ng·h/mL in the data set “in vivo” (10 mg/kg), 58000 ng·h/mL in “in vivo” (25 mg/kg), 136000 ng·h/mL in the data set “in vivo” (50 mg/kg) and 349000 ng·h/mL in “in vivo” (100 mg/kg). Also, the highest concentration (Cmax) in “in vivo” (10 mg/kg) came to 13000 ng/mL; in the data set “in vivo” (25 mg/kg), 27000 ng/mL; in “in vivo” (50 mg/kg), 65000 ng/mL; in “in vivo” (100 mg/kg), 142000 ng/mL. Further, the MIC in data set [2] (setting [3]) was over 64 µg/mL; in data set [2] (setting [4]), 64 µg/mL. In addition, the “Factor of decrease in inhibitory effect on PaLpxH compared to EcLpxH” value in the data set with PaLpxH is over 10.
Turning to `Cc1cc(C#N)nc(N2CCN(S(=O)(=O)c3ccc(NC(=O)c4cc(CN5CC(CN)C5)ccc4N(C)S(C)(=O)=O)cc3)CC2)n1` [EBL-3647], the “Tolerability / adverse reactions in mice” value in “Safety testing in mice” is “well tolerated”. In data set [1], this compound registered an MIC90 of 4 µg/mL (≈ 5.99 µM). In addition, the AUC in “in vivo” (10 mg/kg) is 20200 ng·h/mL; in “in vivo” (25 mg/kg), 55300 ng·h/mL; in “in vivo” (50 mg/kg), 140000 ng·h/mL; in “in vivo” (100 mg/kg), 222000 ng·h/mL. Further, the Cmax in the data set “in vivo” (10 mg/kg) came out at 12000 ng/mL; in the data set “in vivo” (25 mg/kg) it was 30000 ng/mL; in the data set “in vivo” (50 mg/kg) it was 72000 ng/mL; in “in vivo” (100 mg/kg), 130000 ng/mL. Moreover, the values for the MIC in data set [2] (setting [3]) and in data set [2] (setting [4]) were over 64 µg/mL and 64 µg/mL (≈ 95.8 µM), respectively. In addition, in the data set on PaLpxH, the “Factor of decrease in inhibitory effect on PaLpxH compared to EcLpxH” value is recorded as over 10.
